{"source": "patent US20260347280A1", "about": "“DEUTERATED HINOKITIOL DERIVATIVES” (priority 2022, published 2026)", "key": {"[1]": {"assay": "Dynamic light scattering (aggregation)", "format": "physicochemical", "settings": "for aggregation tendency: aqueous media, in words", "experimental": "Dynamic light scattering was performed on a Malvern Zetasizer Nano using disposable cuvettes. […] Compound at the specified concentration (from 1000× in DMSO), as well as equimolar FeCl3 (1000× in 0.1 M HCl) were added to this buffer. After addition, these compounds were vortexed for 30 sec, sonicated for one min, then further vortexed for 30 sec before a five-minute equilibration in the Zetasizer at 37 °C. All standard parameters were used, with each graph representing a minimum of thirty 10 second measurements. For count rate analysis, the raw count rate was utilized, accounting for any differences in attenuator position between samples."}, "[2]": {"assay": "Liposome efflux assay (Fe3+ liposomal efflux, cell-free iron efflux)", "format": "biochemical", "settings": "for iron mobilization capacity / cell-free iron transport, effect of deuteration: deuterated vs protio compound, cell-free iron efflux, 37 °C, 40 min; for iron transport capability at higher concentrations: Fe3+ liposomal efflux, 50-150 μM, compared with hinokitiol or Tri-Methyl", "experimental": "After evaporation under a stream of nitrogen, films were placed under hi-vacuum for 18 hours to ensure quantitative solvent removal. […] LUVs were subjected to size exclusion chromatography, using a ~20 cm column of Sephadex® G-50 Medium resin that was hydrated in liposome outside buffer (600 mM sodium ascorbate, 50 mM MES/TRIS pH 7.0).\nDetermination of total phosphorous was performed utilizing the Bartlett Assay. Briefly, the LUV suspension was diluted 10-fold in liposome outside buffer, then 10 μL of this solution was placed in three 7 mL vials along with 10 μL of liposome outside buffer for background. […] The samples were then allowed to fully cool and diluted using 3.9 mL of Milli-Q water. […] of 2.5% w/v ammonium molybdate was then added, then the samples were vortexed, then […] of 10% w/v ascorbic acid was added. The samples were then re-vortexed, capped, and heated at 100 °C for seven minutes. The samples were allowed to fully cool then read at A820 and compared to a phosphorous standard curve to determine the total quantity of phosphorous.\n16 mL of liposome suspension was created with the following components: […] of ferrozine solution (100× stock, 50 mM in liposome outside buffer), LUV suspension (to a final concentration of 1 mM phosphorous), and liposome outside buffer up to 16 mL. […] of liposome suspension was then added to a 96 well plate (NUM) using a multichannel pipettor. The plate was then placed in a plate reader and equilibrated at 37 °C for 5 minutes, then read for a baseline measurement. Following this equilibration, compound was added at the designated concentrations (40× stock in DMSO) using a multichannel pipettor, and the plate was then incubated at 37 °C for 40 min. Reads were taken every minute at A562 and the plate mixed at 220 rpm. Total iron efflux was determined via […]-iron complex signal. These experiments were performed in triplicate, with a minimum of two biological replicates."}, "[3]": {"settings": "compared with hinokitiol; cited from earlier work"}, "[4]": {"test_system": "shDMT1-Caco-2 monolayer", "assay": "Iron transport in differentiated shDMT1(-Caco-2) monolayers", "format": "cell-based"}, "[5]": {"test_system": "ferroportin 1 (FPN1−) deficient cells and animals", "settings": "cited from earlier work"}, "[6]": {"assay": "Complex formation with iron / crystallographic data", "format": "physicochemical"}, "[7]": {"test_system": "mitoferrin 1 (MFRN1−) deficient cells and animals", "settings": "cited from earlier work"}, "[8]": {"settings": "background; cited from earlier work"}, "[9]": {"test_system": "divalent metal transporter 1 (DMT1−) deficient cells and animals", "settings": "cited from earlier work"}}, "note": "Entries after “also recorded” stand apart in the source; their conditions may differ."}
{"smiles": "CCCCc1cccc(=O)c(O)c1", "note": "[4 nBu, 2-hydroxy-4-butylcyclohepta-2,4,6-trien-1-one]", "values": [{"measurement": "aggregation tendency", "setting": "[1]", "result": "highly aggregating"}, {"measurement": "concentration of compound at which noticeable transport ceases", "setting": "[2]; liposome efflux assay, due to higher order aggregation", "result": 40, "unit": "µM"}]}
{"smiles": "[2H]C([2H])([2H])C([2H])([2H])C([2H])([2H])C([2H])([2H])c1cccc(=O)c(O)c1", "note": "[4 nBu-d9, 2-hydroxy-4-(butyl-d9)cyclohepta-2,4,6-trien-1-one]", "values": [{"measurement": "iron mobilization capacity / cell-free iron transport, effect of deuteration", "setting": "[2]", "result": "maintains transport levels at concentrations when the parent compound suffers from limiting higher order aggregation"}, {"measurement": "iron mobilization capacity / cell-free iron transport, effect of deuteration", "setting": "[2]; listed as 4-n-buytl-(d9)-tropolone", "result": "extends transport window"}, {"measurement": "concentration of compound up to which noticeable transmembrane transport of iron is demonstrated", "setting": "[2]; liposome efflux assay, before dropping to baseline", "result": 75, "unit": "µM"}]}
{"smiles": "CC(C)c1ccc(O)c(=O)cc1", "note": "[GT]", "values": [{"measurement": "aggregation, previously shown", "setting": "[3]", "result": "less aggregation"}, {"measurement": "iron mobilization capacity / cell-free iron transport, effect of deuteration", "setting": "[2]", "result": "no deuteration effect on cell-free iron transport"}]}
{"smiles": "Cc1cc(C)c(O)c(=O)c(C)c1", "note": "[Tri-Methyl]", "values": [{"measurement": "aggregation tendency", "setting": "[1]", "result": "aggregates less"}]}
{"smiles": "[2H]C([2H])([2H])C([2H])(c1cccc(=O)c(O)c1)C([2H])([2H])[2H]", "note": "[hinokitiol-d7, 2-hydroxy-4-(isopropyl-d7)-cyclohepta-2,4,6-trien-1-one]", "values": [{"measurement": "aggregation by dynamic light scattering", "setting": "[1]; 20-100 μM with equimolar iron, pH 7.0, 37 °C", "result": "aggregates less via lesser photon deflection counts and particle size"}, {"measurement": "iron transport capability at higher concentrations", "setting": "[2]", "result": "significantly greater iron transport capability at higher concentrations (50-150 μM) when compared to hinokitiol"}]}
{"smiles": "CC(C)c1cccc(=O)c(O)c1", "note": "[hinokitiol]", "values": [{"measurement": "iron transport / mobilization", "setting": "[4]", "result": "effectively mobilizes iron at low-to-intermediate concentrations; also recorded: at higher concentrations, a substantial decrease in transmembrane mobilizing activity was observed"}, {"measurement": "restoration of iron homeostasis", "setting": "[5]", "result": "restores iron homeostasis"}, {"measurement": "complex formation with Fe(III)", "setting": "[6]", "result": "forms a 3:1 complex with Fe(III)"}, {"measurement": "restoration of iron homeostasis", "setting": "[7]", "result": "restores iron homeostasis"}, {"measurement": "aggregation tendency", "setting": "[1]", "result": "predisposed at higher concentrations to form higher-order aggregates; also recorded: formation of higher-order aggregates in aqueous media"}, {"measurement": "aggregation tendency", "setting": "[1]; listed as Hinokitiol", "result": "highly aggregative"}, {"measurement": "iron transport capability at higher concentrations", "setting": "[2]", "result": "begins to aggregate"}, {"measurement": "complex formation with iron", "setting": "[8]", "result": "reversibly forming a 3:1 complex with iron"}, {"measurement": "restoration of iron homeostasis", "setting": "[9]", "result": "restores iron homeostasis"}]}
